From publication PMC8896928, “Preparation, Characterization, and Preliminary Imaging Study of [^188Re]Re-Ibandronate as a Novel Theranostic Radiopharmaceutical for Bone Metastasis” (Contrast Media & Molecular Imaging, 2022)
Where two headings read alike, the source gives them in different places.

What was measured:
[1] = tested on: nude mice of bone metastasis model (PC-3, MDA-MB-231, left tibia); conditions: for ROI ratio of model bone/contralateral bone (mean): bone imaging
Method: (§1) The nude mice of the bone metastasis model were established by tibial bone marrow injection. The specific methods were as follows: 25 μL of prostate cancer PC-3 and breast cancer MDA-MB-231 cell culture medium were injected into the left tibial bone marrow cavity of healthy male and female nude mice, respectively. At approximately 3-4 weeks after inoculation, they were scanned by microcomputed tomography (CT, SIEMENS InveonTM, Munich, Germany) to determine the condition of the model. […] Bone metastases were initially evaluated by CT and confirmed by pathology after the completion of related studies.
The nude mice were injected with [^18F]F-sodium fluoride (NaF), [^99mTc]Tc-methylene diphosphonate (MDP), and [^188Re]Re-IBA at the first, second, and fifth days, respectively, for bone imaging. […]/computed tomography (PET/CT) acquisition equipment was SIEMENS InveonTM. Single-photon emission computed tomography/computed tomography (SPECT/CT) acquisition equipment was GE SPECT, pinhole collimator.

Kunming mice = tested on: Kunming mice
Method: Sixteen Kunming mice were randomly divided into four groups (equal number of males and females): normal control group and low-, middle-, and high-dose [^188Re]Re-IBA groups. The control group was injected with 0.9% NaCl, and the experimental groups were injected with [^188Re]Re-IBA solution of 3.7 MBq, 18.5 MBq, and 37 MBq, respectively. The body weight and general condition of the mice in each group were measured. After 4 weeks, the blood of the mice in each group was drawn for routine blood examination and liver and kidney function. A pathological examination of important tissue and organs was performed.
SPSS 26.0 was used for statistical analysis, and the quantitative data were expressed as mean ± standard deviation ( χ¯ ± s). In the toxicity test, repeated-measures analysis of variance was used to compare the body weight of mice in each group. P < 0.05 was considered statistically significant.

[2] = tested on: nude mice of bone metastasis model (PC-3, MDA-MB-231, left tibia)
Method: as §1
Ten PC-3 and ten MDA-MB-231 nude mice with bone metastasis were randomly divided into five groups. The mice were sacrificed by CO2 asphyxiation at 1 h, 3 h, 6 h, 24 h, and 48 h. The important tissue and organ samples were collected for the biodistribution study.

CCCCCN(C)CCC1(O)P(=O)(O)[O][188Re]2([OH])([OH])([O]P1(=O)O)[O]P(=O)(O)C(O)(CCN(C)CCCCC)P(=O)(O)[O]2 (stereo not shown) [[^188Re]Re-IBA]
Bone imaging, uptake in the model side vs control side ([1]; 1–3 h after injection, concentration mainly in surrounding soft tissue): higher than that of the control side
ROI ratio of model bone/contralateral bone (mean) ([1]; 6 h): 1.245
ROI ratio of model bone/contralateral bone (mean) ([1]; 16 h): 1.633
ROI ratio of model bone/contralateral bone (mean) ([1]; 32 h): 1.529
Pathology of important tissues and organs vs normal control (Kunming mice; 3.7, 18.5, 37 MBq, 4 weeks): no abnormal pathological changes
Routine blood and liver and kidney function examination (mean values) (Kunming mice; 3.7, 18.5, 37 MBq, 4 weeks): within the normal reference range
Adverse reactions (Kunming mice; 3.7, 18.5, 37 MBq, within 4 weeks): no adverse reactions
Body weight vs other groups (Kunming mice; high-dose group 37 MBq, 4 weeks): inhibited the weight gain of mice to a certain extent
Body weight vs control group (Kunming mice; low-dose group 3.7 MBq, 4 weeks): no significant difference in weight
Body weight vs control group (Kunming mice; medium-dose group 18.5 MBq, 4 weeks): no significant difference in weight
%ID/g Blood ([2]; 1 h): 1.704 ± 0.348 %ID/g
%ID/g Brain ([2]; 1 h): 0.098 ± 0.046 %ID/g
%ID/g CB (contralateral bone) ([2]; 1 h): 9.331 ± 0.541 %ID/g
%ID/g CS (contralateral muscle) ([2]; 1 h): 0.578 ± 0.043 %ID/g
%ID/g Gonad ([2]; 1 h): 0.439 ± 0.162 %ID/g
%ID/g Heart ([2]; 1 h): 0.595 ± 0.099 %ID/g
%ID/g Kidney ([2]; 1 h): 6.004 ± 0.523 %ID/g
%ID/g Liver ([2]; 1 h): 1.236 ± 0.219 %ID/g
%ID/g Lung ([2]; 1 h): 1.135 ± 0.209 %ID/g
%ID/g MB (model bone) ([2]; 1 h): 8.329 ± 0.329 %ID/g
%ID/g Small intestine ([2]; 1 h): 0.718 ± 0.073 %ID/g
%ID/g Spleen ([2]; 1 h): 0.530 ± 0.124 %ID/g
%ID/g Stomach ([2]; 1 h): 3.056 ± 0.321 %ID/g
%ID/g Thyroid gland ([2]; 1 h): 0.625 ± 0.309 %ID/g
CB/CS ratio ([2]; 1 h): 16.144
CB/heart ratio ([2]; 1 h): 15.682
CB/liver ratio ([2]; 1 h): 7.549
MB/CB ratio ([2]; 1 h): 0.893
MB/CS ratio ([2]; 1 h): 14.411
MB/heart ratio ([2]; 1 h): 14.003
MB/liver ratio ([2]; 1 h): 6.738
%ID/g Blood ([2]; 3 h): 0.531 ± 0.092 %ID/g
%ID/g Brain ([2]; 3 h): 0.082 ± 0.017 %ID/g
%ID/g CB (contralateral bone) ([2]; 3 h): 7.717 ± 4.349 %ID/g
%ID/g CS (contralateral muscle) ([2]; 3 h): 0.524 ± 0.172 %ID/g
%ID/g Gonad ([2]; 3 h): 0.231 ± 0.068 %ID/g
%ID/g Heart ([2]; 3 h): 0.326 ± 0.175 %ID/g
%ID/g Kidney ([2]; 3 h): 2.591 ± 1.120 %ID/g
%ID/g Liver ([2]; 3 h): 0.431 ± 0.312 %ID/g
%ID/g Lung ([2]; 3 h): 0.298 ± 0.250 %ID/g
%ID/g MB (model bone) ([2]; 3 h): 5.922 ± 2.126 %ID/g
%ID/g Small intestine ([2]; 3 h): 0.404 ± 0.047 %ID/g
%ID/g Spleen ([2]; 3 h): 0.227 ± 0.141 %ID/g
%ID/g Stomach ([2]; 3 h): 2.064 ± 0.207 %ID/g
%ID/g Thyroid gland ([2]; 3 h): 0.282 ± 0.149 %ID/g
CB/CS ratio ([2]; 3 h): 14.731
CB/heart ratio ([2]; 3 h): 23.637
CB/liver ratio ([2]; 3 h): 17.896
MB/CB ratio ([2]; 3 h): 0.767
MB/CS ratio ([2]; 3 h): 11.305
MB/heart ratio ([2]; 3 h): 18.139
MB/liver ratio ([2]; 3 h): 13.734
%ID/g Blood ([2]; 6 h): 0.302 ± 0.092 %ID/g
%ID/g Brain ([2]; 6 h): 0.042 ± 0.042 %ID/g
%ID/g CB (contralateral bone) ([2]; 6 h): 7.662 ± 2.934 %ID/g
%ID/g CS (contralateral muscle) ([2]; 6 h): 0.153 ± 0.083 %ID/g
%ID/g Gonad ([2]; 6 h): 0.106 ± 0.022 %ID/g
%ID/g Heart ([2]; 6 h): 0.183 ± 0.097 %ID/g
%ID/g Kidney ([2]; 6 h): 2.587 ± 0.126 %ID/g
%ID/g Liver ([2]; 6 h): 0.368 ± 0.054 %ID/g
%ID/g Lung ([2]; 6 h): 0.257 ± 0.030 %ID/g
%ID/g MB (model bone) ([2]; 6 h): 8.417 ± 1.820 %ID/g
%ID/g Small intestine ([2]; 6 h): 0.242 ± 0.118 %ID/g
%ID/g Spleen ([2]; 6 h): 0.176 ± 0.029 %ID/g
%ID/g Stomach ([2]; 6 h): 1.176 ± 0.190 %ID/g
%ID/g Thyroid gland ([2]; 6 h): 0.354 ± 0.217 %ID/g
CB/CS ratio ([2]; 6 h): 50.044
CB/heart ratio ([2]; 6 h): 41.876
CB/liver ratio ([2]; 6 h): 20.818
MB/CB ratio ([2]; 6 h): 1.099
MB/CS ratio ([2]; 6 h): 54.970
MB/heart ratio ([2]; 6 h): 45.999
MB/liver ratio ([2]; 6 h): 22.867
%ID/g Blood ([2]; 24 h): 0.045 ± 0.020 %ID/g
%ID/g Brain ([2]; 24 h): 0.037 ± 0.020 %ID/g
%ID/g CB (contralateral bone) ([2]; 24 h): 4.413 ± 2.225 %ID/g
%ID/g CS (contralateral muscle) ([2]; 24 h): 0.081 ± 0.050 %ID/g
%ID/g Gonad ([2]; 24 h): 0.069 ± 0.018 %ID/g
%ID/g Heart ([2]; 24 h): 0.052 ± 0.027 %ID/g
%ID/g Kidney ([2]; 24 h): 0.640 ± 0.175 %ID/g
%ID/g Liver ([2]; 24 h): 0.089 ± 0.027 %ID/g
%ID/g Lung ([2]; 24 h): 0.101 ± 0.038 %ID/g
%ID/g MB (model bone) ([2]; 24 h): 6.403 ± 0.247 %ID/g
%ID/g Small intestine ([2]; 24 h): 0.049 ± 0.003 %ID/g
%ID/g Spleen ([2]; 24 h): 0.066 ± 0.024 %ID/g
%ID/g Stomach ([2]; 24 h): 0.192 ± 0.092 %ID/g
%ID/g Thyroid gland ([2]; 24 h): 0.082 ± 0.030 %ID/g
CB/CS ratio ([2]; 24 h): 54.620
CB/heart ratio ([2]; 24 h): 85.157
CB/liver ratio ([2]; 24 h): 49.848
MB/CB ratio ([2]; 24 h): 1.451
MB/CS ratio ([2]; 24 h): 79.255
MB/heart ratio ([2]; 24 h): 123.563
MB/liver ratio ([2]; 24 h): 72.330
%ID/g Blood ([2]; 48 h): 0.021 ± 0.008 %ID/g
%ID/g Brain ([2]; 48 h): 0.021 ± 0.009 %ID/g
%ID/g CB (contralateral bone) ([2]; 48 h): 4.737 ± 0.863 %ID/g
%ID/g CS (contralateral muscle) ([2]; 48 h): 0.041 ± 0.022 %ID/g
%ID/g Gonad ([2]; 48 h): 0.028 ± 0.001 %ID/g
%ID/g Heart ([2]; 48 h): 0.035 ± 0.013 %ID/g
%ID/g Kidney ([2]; 48 h): 0.121 ± 0.034 %ID/g
%ID/g Liver ([2]; 48 h): 0.044 ± 0.013 %ID/g
%ID/g Lung ([2]; 48 h): 0.047 ± 0.005 %ID/g
%ID/g MB (model bone) ([2]; 48 h): 6.503 ± 0.010 %ID/g
%ID/g Small intestine ([2]; 48 h): 0.030 ± 0.018 %ID/g
%ID/g Spleen ([2]; 48 h): 0.022 ± 0.013 %ID/g
%ID/g Stomach ([2]; 48 h): 0.027 ± 0.019 %ID/g
%ID/g Thyroid gland ([2]; 48 h): 0.020 ± 0.010 %ID/g
CB/CS ratio ([2]; 48 h): 115.161
CB/heart ratio ([2]; 48 h): 133.599
CB/liver ratio ([2]; 48 h): 106.617
MB/CB ratio ([2]; 48 h): 1.373
MB/CS ratio ([2]; 48 h): 158.088
MB/heart ratio ([2]; 48 h): 183.399
MB/liver ratio ([2]; 48 h): 146.359
